The values that follow come from paper PMC11220827 (Frontiers in Pharmacology, 2024).

Assay [1] has as its target T1, TRβ (Homo sapiens, UniProt P10828).
T1 sequence (P10828 1-461): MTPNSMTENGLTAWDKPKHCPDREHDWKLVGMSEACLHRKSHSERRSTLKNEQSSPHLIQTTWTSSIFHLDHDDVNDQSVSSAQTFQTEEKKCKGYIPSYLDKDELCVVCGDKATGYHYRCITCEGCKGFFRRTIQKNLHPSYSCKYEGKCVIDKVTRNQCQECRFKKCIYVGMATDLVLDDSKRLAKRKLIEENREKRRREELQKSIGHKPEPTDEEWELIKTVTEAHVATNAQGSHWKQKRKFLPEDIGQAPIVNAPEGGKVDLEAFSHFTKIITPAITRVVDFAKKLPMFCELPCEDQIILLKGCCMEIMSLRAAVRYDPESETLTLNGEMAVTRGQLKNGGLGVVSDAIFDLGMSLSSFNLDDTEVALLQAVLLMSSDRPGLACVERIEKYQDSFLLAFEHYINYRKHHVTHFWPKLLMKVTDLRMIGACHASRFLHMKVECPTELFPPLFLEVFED
The conditions noted are these: reference.
Protocol: using the U2-OS based CALUX cytotox bioassay. The cytotoxicity of each test chemical was assessed using the U2-OS based cytotoxicity CALUX bioassay. Concentrations causing >20% reduction of luminescence were considered cytotoxic.
cytotoxicity (relative induction in the cytotoxicity CALUX bioassay > 80%) were used for final
evaluation of analysis results.
induction in the cytotox CALUX bioassay > 80%) were used for final evaluation of analysis results.
All analysis results were expressed in molar (M) final in well.
For determination of the (anti-)ERα, (anti-)AR and (anti-)TRβ CALUX activities, CALUX cells were
seeded in assay medium. Following exposure of the CALUX cells to serial dilutions of the
compounds in triplicate for 24 h, the induction of luciferase production was quantified by measuring
luminescence following addition of the substrate luciferin. For antagonist assays, a fixed
concentration of assay agonist was present in each well, to generate a basal signal. On each plate, a
complete calibration curve for each respective bioassay was also analysed using the relevant reference
compounds. For the analyses in the presence of rat liver S9, 0.03% (v/v) of PB/BNF induced rat liver
S9 mix (including NADPH and an NADPH-regenerating system) was added to the cells directly after
addition of the compounds, which remained there for the duration of the exposure period (24 h) (van
(§1) Relative light units (RLUs) of the CALUX assays were analysed as follows. For agonist assays,
(§2) background values (exposure to DMSO only) were subtracted, and the maximum activity of the
(§3) assay’s reference compound was set to 100%. For antagonist assays, the basal signal (exposure to fixed concentration of agonist only) was set to 100%. Activity of the samples was scaled accordingly,
(§4) resulting in expression of the data as “percentage of maximum reference response”. Graphs were
(§5) generated using the statistical software package GraphPad Prism V5.03. Using these graphs, lowest
effect concentrations (LOECs) and PC50 concentrations were determined; LOEC is defined as the […]

Assay [2] relates to H295R cells. The settings on record: reference: Forskolin (↑), prochloraz (↓).
Protocol: (§6) DMSO (1% compound stock in incubation mixture).
was measured on a Berthold luminometer.
(§7) Serial dilutions of the compounds were incubated in Tris -buffer (pH 8.0) overnight at 4°C in the
(§8) incubation mixture). After incubation, TTR-bound and free T4 were separated on a Bio-Gel P-6DG
(§9) column. The eluate was added to assay medium after which TRβ CALUX cells were exposed for 24 h
(§10) For this TRβ CALUX exposure, serum-free assay medium was used.
(§11) wells plates in assay medium, and exposed for 48h to a serial dilution of the compound in triplicate
(§12) exposure, the assay medium was analysed on the ERα and AR CALUX bioassays as described
(§13) Changes in hormone levels compared to a vehicle control exposure
(§14) Preincubation with rat liver S9 fraction
(§15) To assess the effect of metabolism on the activity of the test
(§16) compound for these assays, preincubations with rat liver S9 were performed. Compounds (10 μl
(§17) DMSO stock solution) were incubated for 0 h (control) or 3 h (test condition) in a total volume of 1
(§18) ml TRIS buffer in the presence of 1% (v/v) PB/BNF induced rat liver S9 mix (including NADPH and
(§19) an NADPH-regenerating system). After incubation, the reaction was stopped by the addition of ice
(§20) cold acetone, and samples were frozen to stimulate protein precipitation. After thawing, the
(§21) precipitated protein fraction was subsequently removed by centrifugation. The supernatant, cont aining
(§22) the metabolites and any remaining non-metabolised parent compound, was concentrated under a
(§23) gentle nitrogen flow. After evaporating to dryness, the sample was taken up in 50 μl DMSO followed
(§24) by the addition of 50 μl TRIS buffer. This extract was used for the exposure of the hTPO inhibition,
as §1, §2, §3, §4, §5
(§25) effect concentrations (LOECs) and PC50 concentrations were determined; LOEC is defined as the
(§26) maximum reference compound activity for agonist assays, and 20% of the maximum reference
(§27) compound activity for antagonist assays. The PC50 is defined as the concentration where the activity
(§28) of the sample equals 50% of the maximum activity of the assay’s reference compound.
(§29) the test compound was divided by the amount of estrogens and androgens produced by the solvent
(§30) control-exposed cells. A sample was considered ‘active’ if it decreased the hormone production 0.8-
Assay [3] relates to H295R cells. The settings on record: reference: Forskolin (↑), prochloraz (↓). The source holds these as a separate data set.
Protocol: as §6
was measured on a Berthold luminometer.
as §7, §8, §9, §10, §11, §12, §13, §14, §15, §16, §17, §18, §19, §20, §21, §22, §23, §24, §1, §2, §3, §4, §5, §25, §26, §27, §28, §29, §30
In assay [4] the target is T2, human thyroid peroxidase (hTPO) (Homo sapiens, UniProt P07202).
T2 sequence (P07202 19-933): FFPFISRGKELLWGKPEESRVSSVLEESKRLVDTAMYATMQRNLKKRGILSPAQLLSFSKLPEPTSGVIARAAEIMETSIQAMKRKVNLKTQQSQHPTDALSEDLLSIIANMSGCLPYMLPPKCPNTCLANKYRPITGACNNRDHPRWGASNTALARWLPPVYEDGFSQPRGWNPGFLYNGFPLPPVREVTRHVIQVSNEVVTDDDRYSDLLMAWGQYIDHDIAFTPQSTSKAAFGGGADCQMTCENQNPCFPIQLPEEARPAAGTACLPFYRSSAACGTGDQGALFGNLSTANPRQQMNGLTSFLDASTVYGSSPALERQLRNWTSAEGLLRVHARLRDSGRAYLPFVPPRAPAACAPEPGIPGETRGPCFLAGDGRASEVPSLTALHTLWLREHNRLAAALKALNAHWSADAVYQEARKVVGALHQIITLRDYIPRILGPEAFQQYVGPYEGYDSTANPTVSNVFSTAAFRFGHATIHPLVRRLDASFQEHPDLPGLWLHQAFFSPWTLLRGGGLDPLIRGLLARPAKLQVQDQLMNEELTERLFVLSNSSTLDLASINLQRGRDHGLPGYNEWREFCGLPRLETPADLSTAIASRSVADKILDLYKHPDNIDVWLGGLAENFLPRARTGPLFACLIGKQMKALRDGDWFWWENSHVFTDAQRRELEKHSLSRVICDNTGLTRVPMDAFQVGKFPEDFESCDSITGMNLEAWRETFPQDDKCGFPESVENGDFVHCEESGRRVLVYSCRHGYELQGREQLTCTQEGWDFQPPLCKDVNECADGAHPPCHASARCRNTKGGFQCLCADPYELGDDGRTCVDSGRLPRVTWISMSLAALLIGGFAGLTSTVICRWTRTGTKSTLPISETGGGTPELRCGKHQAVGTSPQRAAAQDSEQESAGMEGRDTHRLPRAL
The settings on record: reference.
Protocol: hTPO was derived from Nthy-ori 3-1 cells. Cell lysate containing hTPO in Glycine-NaOH buffer (pH
9.0) was incubated for 30 minutes at 37°C in the presence of serial dilutions of the compounds in
as §6
was measured on a Berthold luminometer.
as §14, §15
compound for these assays, preincubations with rat liver S9 were performed.

Regarding `CC1=C[C@H]2O[C@@H]3[C@H](O)C[C@](C)([C@@]2(CO)[C@H](O)C1=O)[C@]31CO1` [Deoxynivalenol, reference compound], the “Anti-TRß antithyroid LOEC, reference compound” value in assay [1] is recorded as −6.9 Log M.
Regarding `C=C[C@@]1(C)CC(=O)[C@]2(O)[C@@]3(C)[C@@H](O)CCC(C)(C)[C@@H]3[C@H](O)[C@H](OC(C)=O)[C@@]2(C)O1` [Forskolin, reference compound], the “Steroidogenesis (ERα) 17β-estradiol LOEC, reference compound” value in assay [2] was −6.0 Log M. In addition, the “Steroidogenesis (AR) Testosterone LOEC, reference compound” value in assay [3] is recorded as −6.0 Log M.
With `Cn1cc[nH]c1=S` [Methimazole, reference compound], the “hTPO inhibition (thyroid) LOEC, reference compound” value in assay [4] is listed as −6.3 Log M.
Take `CCCN(CCOc1c(Cl)cc(Cl)cc1Cl)C(=O)n1ccnc1` [prochloraz, reference compound]: the “Steroidogenesis (ERα) 17β-estradiol LOEC, reference compound” value in assay [2] is −6.0 Log M. For the same molecule, the “Steroidogenesis (AR) Testosterone LOEC, reference compound” value in assay [3] is on record as −6.0 Log M.
